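Dose response: 5 concentrations. Exposure: 48 h. Format: 96-well plates. Endpoint: linear interpolation; highest concentration if not reached. GI50 marks 50% less growth.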 The source made the active and inactive calls. Rule as the data show it: active = GI50 up to about 1.1 µM and inactive = higher.
Experiments:
Test in all cases: DTP human tumour cell line panel, 48 h
786-0 = test system: 786-0
A498 = test system: A498
A549 = test system: A549
ACHN = test system: ACHN
BT-549 = test system: BT-549
CAKI-1 = test system: CAKI-1
CCRF-CEM = test system: CCRF-CEM
COLO 205 = test system: COLO 205
DU-145 = test system: DU-145
EKVX = test system: EKVX
HCC 2998 = test system: HCC 2998
HCT-116 = test system: HCT-116
HCT-15 = test system: HCT-15
HL-60 = test system: HL-60
HOP-62 = test system: HOP-62
HOP-92 = test system: HOP-92
HT-29 = test system: HT-29
Hs-578T = test system: Hs-578T
IGROV-1 = test system: IGROV-1
K562 = test system: K562
KM12 = test system: KM12
LOX IMVI = test system: LOX IMVI
M14 = test system: M14
MCF7 = test system: MCF7
MDA-MB-231 = test system: MDA-MB-231
MDA-MB-435 = test system: MDA-MB-435
MDA-N = test system: MDA-N
MOLT-4 = test system: MOLT-4
Malme-3M = test system: Malme-3M
NCI-H226 = test system: NCI-H226
NCI-H23 = test system: NCI-H23
NCI-H460 = test system: NCI-H460
NCI-H522 = test system: NCI-H522
NCI/ADR-RES = test system: NCI/ADR-RES
OVCAR-3 = test system: OVCAR-3
OVCAR-5 = test system: OVCAR-5
OVCAR-8 = test system: OVCAR-8
PC-3 = test system: PC-3
RPMI-8226 = test system: RPMI-8226
SF-268 = test system: SF-268
SF-295 = test system: SF-295
SF-539 = test system: SF-539
SK-MEL-28 = test system: SK-MEL-28
SK-MEL-2 = test system: SK-MEL-2
SK-MEL-5 = test system: SK-MEL-5
SK-OV-3 = test system: SK-OV-3
SN12C = test system: SN12C
SNB-19 = test system: SNB-19
SNB-75 = test system: SNB-75
SW-620 = test system: SW-620
T47D = test system: T47D
TK-10 = test system: TK-10
U-251 = test system: U-251
UACC-257 = test system: UACC-257
UACC-62 = test system: UACC-62
UO-31 = test system: UO-31
OVCAR-4 = test system: OVCAR-4
RXF 393 = test system: RXF 393

CC(C)(C)n1c(=O)n2n(c1=O)C1c3cccc4cccc(c34)C2C2c3cccc4cccc(c34)C1n1c(=O)n(C(C)(C)C)c(=O)n12
GI50 (786-0): > 100 µM (inactive)
GI50 (A498): > 100 µM (inactive)
GI50 (A549): 78.3 µM (inactive)
GI50 (ACHN): 61.4 µM (inactive)
GI50 (BT-549): > 100 µM (inactive)
GI50 (CAKI-1): 6.65 µM (inactive)
GI50 (CCRF-CEM): 32.7 µM (inactive)
GI50 (COLO 205): > 100 µM (inactive)
GI50 (DU-145): 80.2 µM (inactive)
GI50 (EKVX): 63.1 µM (inactive)
GI50 (HCC 2998): 64.3 µM (inactive)
GI50 (HCT-116): 61.9 µM (inactive)
GI50 (HCT-15): 74.5 µM
GI50 (HL-60): 30.5 µM (inactive)
GI50 (HOP-62): 67.3 µM (inactive)
GI50 (HOP-92): > 100 µM (inactive)
GI50 (HT-29): > 100 µM (inactive)
GI50 (Hs-578T): 64.3 µM (inactive)
GI50 (IGROV-1): 21.7 µM (inactive)
GI50 (K562): 87.5 µM (inactive)
GI50 (KM12): > 100 µM (inactive)
GI50 (LOX IMVI): 42.8 µM (inactive)
GI50 (M14): > 100 µM (inactive)
GI50 (MCF7): > 100 µM (inactive)
GI50 (MDA-MB-231): 32.9 µM (inactive)
GI50 (MDA-MB-435): > 100 µM (inactive)
GI50 (MDA-N): > 100 µM (inactive)
GI50 (MOLT-4): 61 µM (inactive)
GI50 (Malme-3M): > 100 µM (inactive)
GI50 (NCI-H226): 84.1 µM (inactive)
GI50 (NCI-H23): 95.7 µM (inactive)
GI50 (NCI-H460): 64.7 µM (inactive)
GI50 (NCI-H522): 36 µM (inactive)
GI50 (NCI/ADR-RES): > 100 µM (inactive)
GI50 (OVCAR-3): 16.3 µM (inactive)
GI50 (OVCAR-5): > 100 µM (inactive)
GI50 (OVCAR-8): 86.9 µM (inactive)
GI50 (PC-3): 59.8 µM (inactive)
GI50 (RPMI-8226): 55.8 µM (inactive)
GI50 (SF-268): 53.8 µM (inactive)
GI50 (SF-295): 80.4 µM (inactive)
GI50 (SF-539): 41.4 µM (inactive)
GI50 (SK-MEL-28): > 100 µM (inactive)
GI50 (SK-MEL-2): 37.5 µM (inactive)
GI50 (SK-MEL-5): > 100 µM (inactive)
GI50 (SK-OV-3): 96.8 µM (inactive)
GI50 (SN12C): > 100 µM (inactive)
GI50 (SNB-19): > 100 µM (inactive)
GI50 (SNB-75): 10.8 µM (inactive)
GI50 (SW-620): 90.4 µM (inactive)
GI50 (T47D): 44.9 µM (inactive)
GI50 (TK-10): 93.5 µM (inactive)
GI50 (U-251): 43 µM (inactive)
GI50 (UACC-257): > 100 µM (inactive)
GI50 (UACC-62): 66.4 µM (inactive)
GI50 (UO-31): > 100 µM (inactive)

NC(=O)C/C=C/CC(N)=O
GI50 (786-0): > 100 µM (inactive)
GI50 (A498): > 100 µM (inactive)
GI50 (A549): > 100 µM (inactive)
GI50 (ACHN): > 100 µM (inactive)
GI50 (BT-549): > 100 µM (inactive)
GI50 (CAKI-1): > 100 µM (inactive)
GI50 (CCRF-CEM): > 100 µM (inactive)
GI50 (COLO 205): > 100 µM (inactive)
GI50 (DU-145): > 100 µM (inactive)
GI50 (EKVX): > 100 µM (inactive)
GI50 (HCC 2998): > 100 µM (inactive)
GI50 (HCT-116): > 100 µM (inactive)
GI50 (HCT-15): > 100 µM
GI50 (HL-60): > 100 µM (inactive)
GI50 (HOP-62): > 100 µM (inactive)
GI50 (HOP-92): > 100 µM (inactive)
GI50 (HT-29): > 100 µM (inactive)
GI50 (Hs-578T): > 100 µM (inactive)
GI50 (IGROV-1): > 100 µM (inactive)
GI50 (KM12): > 100 µM (inactive)
GI50 (LOX IMVI): > 100 µM (inactive)
GI50 (M14): > 100 µM (inactive)
GI50 (MCF7): > 100 µM (inactive)
GI50 (MDA-MB-231): > 100 µM (inactive)
GI50 (MDA-MB-435): > 100 µM (inactive)
GI50 (MDA-N): > 100 µM (inactive)
GI50 (MOLT-4): 0.259 µM (active)
GI50 (Malme-3M): > 100 µM (inactive)
GI50 (NCI-H226): > 100 µM (inactive)
GI50 (NCI-H23): > 100 µM (inactive)
GI50 (NCI-H460): > 100 µM (inactive)
GI50 (NCI-H522): > 100 µM (inactive)
GI50 (NCI/ADR-RES): > 100 µM (inactive)
GI50 (OVCAR-3): > 100 µM (inactive)
GI50 (OVCAR-4): > 100 µM (inactive)
GI50 (OVCAR-5): > 100 µM (inactive)
GI50 (OVCAR-8): > 100 µM (inactive)
GI50 (PC-3): > 100 µM (inactive)
GI50 (RPMI-8226): > 100 µM (inactive)
GI50 (RXF 393): > 100 µM (inactive)
GI50 (SF-268): > 100 µM (inactive)
GI50 (SF-295): > 100 µM (inactive)
GI50 (SF-539): > 100 µM (inactive)
GI50 (SK-MEL-28): > 100 µM (inactive)
GI50 (SK-MEL-2): > 100 µM (inactive)
GI50 (SK-MEL-5): > 100 µM (inactive)
GI50 (SK-OV-3): > 100 µM (inactive)
GI50 (SN12C): > 100 µM (inactive)
GI50 (SNB-19): > 100 µM (inactive)
GI50 (SNB-75): > 100 µM (inactive)
GI50 (SW-620): > 100 µM (inactive)
GI50 (T47D): > 100 µM (inactive)
GI50 (TK-10): > 100 µM (inactive)
GI50 (U-251): > 100 µM (inactive)
GI50 (UACC-257): > 100 µM (inactive)
GI50 (UACC-62): > 100 µM (inactive)
GI50 (UO-31): > 100 µM (inactive)
